The source made the active and inactive calls. The calls are words filed in the database; no cut-off is given here.
Legend:
[1] = Antiviral activity against Influenza A virus (A/Thailand/Kan353/2004(H5N1)) co-expressing NA plasmid infected in 293T cells assessed as inhibition of viral entry incubated for 30 mins followed by addition of cells measured after 48 hrs by luciferase reporter gene assay; type: functional, cell-based; conditions: HEK-293T
[2] = Cytotoxicity against MDCK cells after 2 days by MTT assay; type: cell-based, Canis lupus familiaris; conditions: dog
[3] = Selectivity index, ratio of CC50 for MDCK cells to IC50 for Influenza A virus (A/Thailand/Kan353/2004(H5N1); type: toxicity; conditions: dog, read-out: Ratio CC50/IC50
[4] = test system: Human immunodeficiency virus 1; test: Antiviral activity against VSV-g pseudotyped HIV1 infected in 293T cells cotransfected with HA and NA plasmid incubated for 30 mins followed by addition of cells measured after 48 hrs by luciferase reporter gene assay; type: functional, cell-based
[5] = test system: Influenza A virus; test: Inhibition of Influenza A virus H5N1 neuraminidase N1 subtype at 20 uM/L after 30 mins by fluorescence assay
[6] = (§1) Binding affinity to Influenza A virus (A/Vietnam/1194/2004(H5N1)) His-tagged hemagglutinin after 250 secs by SPR analysis
[7] = test system: Influenza A virus (A/Vietnam/1194/2004(H5N1)); test: as §1
[8] = (§2) Binding affinity to Influenza A virus (A/Viet Nam/1203/2004(H5N1)) Fc-tagged hemagglutinin 2 after 250 secs by SPR analysis
[9] = test system: Influenza A virus (A/Viet Nam/1203/2004(H5N1)); test: as §2
[10] = biological target: Peptidyl-prolyl cis-trans isomerase FKBP1A (Homo sapiens) (UniProt P62942); test: Binding affinity to FKBP12 (unknown origin) after 250 secs by SPR analysis
Sequence of Peptidyl-prolyl cis-trans isomerase FKBP1A (Homo sapiens) (P62942 whole entry): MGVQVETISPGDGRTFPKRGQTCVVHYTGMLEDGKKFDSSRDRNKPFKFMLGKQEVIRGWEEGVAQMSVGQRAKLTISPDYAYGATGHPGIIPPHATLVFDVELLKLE

[11] = test system: Influenza A virus (A/Puerto Rico/8/1934(H1N1)); test: Inhibition of Influenza A virus (A/Puerto Rico/8/34(H1N1)) […] hemagglutination of chicken RBC at 20 uM incubated for 1 hr followed by chicken RBC addition measured for 10 mins

| SMILES | IC50 [1] | CC50 at 48 h [2] | selectivity ratio [3] | Activity [4] | inhibition [5] | Kd [6] | Activity [7] | Kd [8] | Activity [9] | Activity [10] | inhibition [11] |
| --- | --- | --- | --- | --- | --- | --- | --- | --- | --- | --- | --- |
| C[C@H]1O[C@H](O[C@H]2[C@H](O[C@H]3CC[C@]4(C)[C@H]5CC=C6[C@@H]7CC(C)(C)CC[C@]7(C(=O)OCc7ccccc7)CC[C@@]6(C)[C@]5(C)CC[C@H]4C3(C)C)O[C@H](CO)[C@@H](O[C@H]3O[C@H](C)[C@@H](O)[C@H](O)[C@@H]3O)[C@@H]2O)[C@@H](O)[C@@H](O)[C@@H]1O | > 50 µM | 52.4 µM | < 1 |  |  |  |  |  |  |  |  |
| C[C@@H]1O[C@H](O[C@H]2[C@H](O[C@H]3CC[C@]4(C)[C@H]5CC=C6[C@@H]7CC(C)(C)CC[C@]7(C(=O)OCc7ccccc7)CC[C@@]6(C)[C@]5(C)CC[C@H]4C3(C)C)O[C@H](CO)[C@@H](O[C@H]3O[C@@H](C)[C@@H](O)[C@@H](O)[C@@H]3O)[C@@H]2O)[C@@H](O)[C@H](O)[C@@H]1O | 8.65 µM | 27.4 µM | 3.2 | inactive | inactive |  |  |  |  |  |  |
| COC(=O)[C@]12CCC(C)(C)C[C@H]1C1=CC[C@@H]3[C@@]4(C)CC[C@H](O[C@@H]5O[C@H](CO)[C@H](O[C@H]6O[C@H](C)[C@@H](O)[C@H](O)[C@@H]6O)[C@H](O)[C@H]5O[C@H]5O[C@H](C)[C@@H](O)[C@H](O)[C@@H]5O)C(C)(C)[C@@H]4CC[C@@]3(C)[C@]1(C)CC2 | 11.1 µM | 45.6 µM | 4.1 |  |  |  |  |  |  |  |  |
| COC(=O)[C@]12CCC(C)(C)C[C@H]1C1=CC[C@@H]3[C@@]4(C)CC[C@H](O[C@@H]5O[C@H](CO)[C@@H](O)[C@H](O[C@@H]6O[C@@H](C)[C@H](O)[C@@H](O)[C@H]6O)[C@H]5O)C(C)(C)[C@@H]4CC[C@@]3(C)[C@]1(C)CC2 | > 50 µM | 25.3 µM | < 1 |  |  |  |  |  |  |  |  |
| COC(=O)[C@]12CCC(C)(C)C[C@H]1C1=CC[C@@H]3[C@@]4(C)CC[C@H](O[C@@H]5O[C@H](CO)[C@@H](O)[C@H](O[C@@H]6O[C@@H](C)[C@H](O)[C@@H](O)[C@H]6O)[C@H]5O[C@@H]5O[C@@H](C)[C@H](O)[C@@H](O)[C@H]5O)C(C)(C)[C@@H]4CC[C@@]3(C)[C@]1(C)CC2 | > 50 µM | 22.4 µM | < 1 |  |  |  |  |  |  |  |  |
| CC1(C)CC[C@]2(C(=O)OCc3ccccc3)CC[C@]3(C)C(=CC[C@@H]4[C@@]5(C)CC[C@H](O[C@@H]6O[C@H](CO)[C@@H](O[C@H]7OC[C@@H](O)[C@H](O)[C@H]7O)[C@H](O)[C@H]6O[C@H]6OC[C@@H](O)[C@H](O)[C@H]6O)C(C)(C)[C@@H]5CC[C@]43C)[C@@H]2C1 | > 50 µM | 20.8 µM | < 1 |  |  |  |  |  |  |  |  |
| C[C@@H]1O[C@@H](O[C@H]2[C@H](O[C@@H]3CC[C@]4(C)[C@H]5CC=C6[C@@H]7CC(C)(C)CC[C@]7(C(=O)OCc7ccccc7)CC[C@@]6(C)[C@]5(C)CC[C@H]4C3(C)C)O[C@H](CO)[C@@H](O[C@@H]3O[C@@H](C)[C@H](O)[C@@H](O)[C@H]3O)[C@@H]2O)[C@H](O)[C@H](O)[C@H]1O | 5.88 µM | > 200 µM | > 34 | inactive | inactive | 0.443 µM | Dose-dependent effect | 0.000553 µM | Dose-dependent effect | inactive |  |
| C[C@@H]1O[C@@H](O[C@H]2[C@H](O[C@H]3CC[C@]4(C)[C@H]5C(=O)C=C6[C@@H]7CC(C)(C)CC[C@]7(C(=O)OCc7ccccc7)CC[C@@]6(C)[C@]5(C)CC[C@H]4C3(C)C)O[C@H](CO)[C@@H](O[C@@H]3O[C@@H](C)[C@H](O)[C@@H](O)[C@H]3O)[C@@H]2O)[C@H](O)[C@H](O)[C@H]1O | 4.05 µM | 92.7 µM | 22.9 | inactive | inactive | 0.0617 µM | Dose-dependent effect | 0.00386 µM | Dose-dependent effect | inactive | inactive |
| CC1(C)CC[C@]2(C(=O)OCc3ccccc3)CC[C@]3(C)C(=CC[C@@H]4[C@@]5(C)CC[C@H](O[C@@H]6O[C@H](CO)[C@@H](O[C@@H]7OC[C@@H](O)[C@@H](O)[C@@H]7O)[C@H](O)[C@H]6O[C@@H]6OC[C@@H](O)[C@@H](O)[C@@H]6O)C(C)(C)[C@@H]5CC[C@]43C)[C@@H]2C1 | > 50 µM | 48.2 µM | < 1 |  |  |  |  |  |  |  |  |
| COC(=O)[C@]12CCC(C)(C)C[C@H]1C1=CC[C@@H]3[C@@]4(C)CC[C@@H](O[C@@H]5O[C@H](CO)[C@@H](O[C@@H]6O[C@@H](C)[C@H](O)[C@@H](O)[C@H]6O)[C@H](O)[C@H]5O[C@@H]5O[C@@H](C)[C@H](O)[C@@H](O)[C@H]5O)C(C)(C)[C@@H]4CC[C@@]3(C)[C@]1(C)CC2 | 5.06 µM | > 200 µM | > 40 |  |  |  |  |  |  |  |  |
| COC(=O)[C@]12CCC(C)(C)C[C@H]1C1=CC(=O)[C@@H]3[C@@]4(C)CC[C@H](O[C@@H]5O[C@H](CO)[C@@H](O[C@@H]6O[C@@H](C)[C@H](O)[C@@H](O)[C@H]6O)[C@H](O)[C@H]5O[C@@H]5O[C@@H](C)[C@H](O)[C@@H](O)[C@H]5O)C(C)(C)[C@@H]4CC[C@@]3(C)[C@]1(C)CC2 | 4.1 µM | 33.8 µM | 8.3 |  |  |  |  |  |  |  |  |
| C[C@H]1O[C@H](O[C@@H]2[C@H](O)[C@@H](O[C@H]3O[C@H](C)[C@@H](O)[C@H](O)[C@@H]3O)[C@H](O[C@H]3CC[C@]4(C)[C@H]5CC=C6[C@@H]7CC(C)(C)CC[C@]7(C(=O)OCc7ccccc7)CC[C@@]6(C)[C@]5(C)CC[C@H]4C3(C)C)O[C@@H]2CO)[C@@H](O)[C@@H](O)[C@@H]1O | 9.36 µM | 82.4 µM | 8.8 |  |  |  |  |  |  |  |  |
| C[C@@H]1O[C@@H](O[C@H]2[C@H](O[C@H]3CC[C@]4(C)[C@H]5CC=C6[C@@H]7CC(C)(C)CC[C@]7(C(=O)OCc7ccccc7)CC[C@@]6(C)[C@]5(C)CC[C@H]4C3(C)C)O[C@H](CO)[C@@H](O[C@@H]3O[C@@H](C)[C@H](O)[C@@H](O)[C@H]3O)[C@@H]2O)[C@H](O)[C@H](O)[C@H]1O | 4.82 µM | 23.5 µM | 4.9 |  |  |  |  |  |  |  |  |
| O=C(NCCN1CCCCC1)c1cc(F)cc(C(F)(F)F)c1 | 4.45 µM |  | 332 |  |  |  |  |  |  |  |  |
| COC(=O)[C@]12CCC(C)(C)C[C@H]1C1=CC[C@@H]3[C@@]4(C)CC[C@H](O[C@@H]5O[C@H](CO)[C@@H](O)[C@H](O)[C@H]5O[C@@H]5O[C@@H](C)[C@H](O)[C@@H](O)[C@H]5O)C(C)(C)[C@@H]4CC[C@@]3(C)[C@]1(C)CC2 | 16.3 µM | 23.6 µM | 1.4 |  |  |  |  |  |  |  |  |
| COC(=O)[C@]12CCC(C)(C)C[C@H]1C1=CC[C@@H]3[C@@]4(C)CC[C@H](O[C@@H]5O[C@H](CO)[C@@H](O[C@@H]6O[C@@H](C)[C@H](O)[C@@H](O)[C@H]6O)[C@H](O)[C@H]5O[C@@H]5O[C@@H](C)[C@H](O)[C@@H](O)[C@H]5O)C(C)(C)[C@@H]4CC[C@@]3(C)[C@]1(C)CC2 | 4.74 µM |  | 3.6 |  |  |  |  |  |  |  |  |
| CC1(C)CC[C@]2(C(=O)OCc3ccccc3)CC[C@]3(C)C(=CC[C@@H]4[C@@]5(C)CC[C@H](O[C@@H]6O[C@H](CO)[C@@H](O[C@@H]7OC[C@H](O)[C@H](O)[C@H]7O)[C@H](O)[C@H]6O[C@@H]6OC[C@H](O)[C@H](O)[C@H]6O)C(C)(C)[C@@H]5CC[C@]43C)[C@@H]2C1 | > 50 µM | 26.4 µM | < 1 |  |  |  |  |  |  |  |  |

From ChEMBL document CHEMBL4052707, “Structure-activity relationships of 3-O-β-chacotriosyl oleanic acid derivatives as entry inhibitors for highly pathogenic H5N1 influenza virus” (Bioorg Med Chem, 2017)
